Source: patent US11040954B1, “CXCR3 receptor agonists” (RECEPTOS LLC, priority 2016, dated 2021)

Molecular target: T1, CXCR3 (Homo sapiens, UniProt P49682)
T1 construct: host or cells: CHO-K1 (cAMP Hunter CHOK1 CXCR3 Gi cell line)
T1 sequence (P49682 1-368): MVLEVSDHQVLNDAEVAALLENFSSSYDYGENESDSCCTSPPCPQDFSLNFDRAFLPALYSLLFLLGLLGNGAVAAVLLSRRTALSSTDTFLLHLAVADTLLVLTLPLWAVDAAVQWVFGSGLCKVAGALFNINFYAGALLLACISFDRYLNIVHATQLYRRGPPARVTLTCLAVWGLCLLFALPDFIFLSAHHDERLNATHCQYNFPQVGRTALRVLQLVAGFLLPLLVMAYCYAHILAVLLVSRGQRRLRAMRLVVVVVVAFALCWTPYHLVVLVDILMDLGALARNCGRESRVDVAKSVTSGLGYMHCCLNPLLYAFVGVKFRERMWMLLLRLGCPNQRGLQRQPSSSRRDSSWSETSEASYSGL
Assay: CXCR3 cAMP agonist assay (cAMP Hunter CHOK1 CXCR3 Gi cell line, forskolin-stimulated, HitHunter cAMP detection)
Format: cell-based
Conditions: cAMP Hunter CHOK1 CXCR3 Gi cells, 20 μM forskolin, 30 minutes; read-out: Activity (CXCR3 cAMP agonist assay compound EC50)
Procedure, shortened: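 CHOK1 cells expressing human CXCR3 with Gi coupling, 50,000/well in suspension in HBSS/10 mM HEPES/0.1% BSA pH 7.4, were co-treated with 20 μM forskolin and compound (12-point, 0-10 μM, 1% DMSO) for 30 min. cAMP was read by enzyme-complementation luminescence; CXCL11 dose response set maximum efficacy.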

| EC50 | Structure (SMILES) |
| --- | --- |
| 50 to 250 nM | CCc1cc(Cl)c(C)cc1NC(=O)[C@H](CCN)NC(=O)[C@@H]1Cc2ccccc2CN1C(=O)CCC(=O)c1ccccc1 [Compound 2-41] |
| < 50 nM | NCC[C@H](NC(=O)[C@@H]1Cc2ccc(O)cc2CN1C(=O)CCC(=O)c1ccccc1)C(=O)Nc1ccc(Cl)c(Cl)c1F [Compound 4-20] |
| < 50 nM | Cc1cc(NC(=O)[C@H](CCN)NC(=O)[C@@H]2Cc3ccccc3CN2C(=O)CCC(=O)N2CCN(C)C2)ccc1Cl [Compound 12-145] |
| 50 to 250 nM | NCC[C@H](NC(=O)[C@@H]1Cc2ccccc2CN1C(=O)CCC(=O)c1ccccc1)C(=O)Nc1cc(Cl)ccc1F [Compound 2-37] |
| < 50 nM | CC(C)(C)C1CCN(C(=O)CCC(=O)N2Cc3ccccc3C[C@H]2C(=O)N[C@@H](CCN)C(=O)Nc2ccc(Cl)c(Cl)c2F)C1 (stereo partly drawn) [Compound 15-34] |
| < 50 nM | Cc1cc(NC(=O)[C@H](CCN)NC(=O)[C@@H]2Cc3ccccc3CN2C(=O)CCC(=O)N2C(C)CCC2C)ccc1Cl (stereo partly drawn) [Compound 12-47] |
| < 50 nM | Cc1cc(NC(=O)[C@H](CCN)NC(=O)[C@@H]2Cc3ccccc3CN2C(=O)CCC(=O)N2CCC(C(C)(C)C)CC2)ccc1Cl [Compound 12-87] |
| 50 to 250 nM | NCCCC[C@H](NC(=O)[C@@H]1Cc2ccccc2CN1C(=O)CCC(=O)c1ccccc1)C(=O)Nc1ccc(Cl)c(Cl)c1 [Compound 1-1, (S)—N—((S)-6-amino-1-((3,4-dichlorophenyl)amino)-1-oxohexan-2-yl)-2-(4-oxo-4-phenylbutanoyl)-1,2,3,4-tetrahydroisoquinoline-3-carboxamide] |
| < 50 nM | CC1(C)CCCCN1C(=O)CCC(=O)N1Cc2ccccc2C[C@H]1C(=O)N[C@H](CCN1CCC(O)CC1)C(=O)Nc1ccc(Cl)c(Cl)c1F [Compound 26-2] |
| < 50 nM | NCC[C@H](NC(=O)[C@@H]1Cc2ccccc2CN1C(=O)CCC(=O)N1CCCC[C@@H]1CO)C(=O)Nc1ccc(Cl)c(Cl)c1F [Compound 15-18] |
| < 50 nM | Cc1cc(NC(=O)[C@H](CCN)NC(=O)[C@@H]2Cc3ccccc3CN2C(=O)CCC(=O)N2CCC(C(F)(F)F)C2)ccc1Cl (stereo partly drawn) [Compound 12-52] |
| < 50 nM | Cc1cc(NC(=O)[C@H](CCN)NC(=O)[C@@H]2Cc3ccccc3CN2C(=O)CCC(=O)N2CCCC[C@@H]2C)ccc1Cl [Compound 12-56] |
| 50 to 250 nM | O=C(CCC(=O)N1Cc2ccccc2C[C@H]1C(=O)N[C@@H](CCN1CCS(=O)(=O)CC1)C(=O)Nc1ccc2c(c1)CCC2)c1ccccc1 [Compound 23-9] |
| 50 to 250 nM | Cc1cc(NC(=O)[C@H](CCCCN)NC(=O)[C@@H]2Cc3ccccc3CN2C(=O)CCC(=O)c2cccc(Cl)c2)ccc1Cl [Compound 7-2] |
| < 50 nM | COc1cc2c(cc1NC(=O)[C@H](CCN)NC(=O)[C@@H]1Cc3ccccc3CN1C(=O)CCC(=O)c1ccccc1)CCC2 [Compound 1-39] |
| 50 to 250 nM | CC1(C)Cc2ccc(NC(=O)[C@H](CCN)NC(=O)[C@@H]3Cc4ccccc4CN3C(=O)CCC(=O)c3ccccc3)cc2C1 [Compound 2-75] |
| < 50 nM | Cc1cc(NC(=O)[C@H](CCN)NC(=O)[C@@H]2Cc3ccccc3CN2C(=O)CCC(=O)N2CCCC2)ccc1Cl [Compound 12-5] |
| < 50 nM | Cc1cc(NC(=O)[C@H](CCN)NC(=O)[C@@H]2Cc3ccccc3CN2C(=O)CCC(=O)N2CC[C@@H](N(C)C)C2)ccc1Cl [Compound 12-50] |
| 250 to 500 nM | COc1ccccc1NC(=O)[C@H](CCCCN)NC(=O)[C@@H]1Cc2ccccc2CN1C(=O)CCC(=O)c1ccccc1 [Compound 1-6] |
| 50 to 250 nM | Cc1cc(NC(=O)[C@H](CCN)NC(=O)[C@@H]2Cc3ccccc3CN2C(=O)CCC(=O)N2CCC(O)C2)ccc1Cl (stereo partly drawn) [Compound 12-48] |
| 50 to 250 nM | CCC(C)(C)NC(=O)CCC(=O)N1Cc2ccccc2C[C@H]1C(=O)N[C@@H](CCN)C(=O)Nc1ccc(Cl)c(C)c1 [Compound 12-92] |
| < 50 nM | Cc1cc(NC(=O)[C@H](Cc2c[nH]cn2)NC(=O)[C@@H]2Cc3ccccc3CN2C(=O)CCC(=O)c2ccccc2)ccc1Cl [Compound 4-8] |
| 50 to 250 nM | Cc1cc(NC(=O)[C@H](CCN)NC(=O)[C@@H]2Cc3ccccc3CN2C(=O)CCC(=O)c2ccccc2)ccc1C(F)(F)F [Compound 2-27] |
| < 50 nM | Cc1cc(NC(=O)[C@H](CCN)NC(=O)[C@@H]2Cc3ccccc3CN2C(=O)CCC(=O)N2CCCC(F)(F)C2)ccc1Cl [Compound 12-79] |
| 50 to 250 nM | Cc1cc(NC(=O)[C@H](CCN)NC(=O)[C@@H]2Cc3ccccc3CN2C(=O)CCC(=O)N2CCN(c3nccs3)CC2)ccc1Cl [Compound 12-108] |
| > 500 nM | NCC[C@H](NC(=O)[C@@H]1Cc2ccccc2CN1C(=O)CCC(=O)c1ccccc1)C(=O)Nc1ccc2ccncc2c1 [Compound 2-42] |

| EC50 | Structure (SMILES) |
| --- | --- |
| < 50 nM | Cc1cc(NC(=O)[C@H](CCN)NC(=O)[C@@H]2Cc3ccccc3CN2C(=O)CCC(=O)N2CCCC[C@H]2C)ccc1Cl [Compound 12-25] |
| 50 to 250 nM | Cc1cc(NC(=O)C(CC2CCNCC2)NC(=O)[C@@H]2Cc3ccccc3CN2C(=O)CCC(=O)c2ccccc2)ccc1Cl (mixture of isomers) [Compound 4-11] |
| 50 to 250 nM | Cc1cc(NC(=O)[C@H](CCN)NC(=O)[C@@H]2Cc3ccccc3CN2C(=O)CCC(=O)N2CCN(c3ncccn3)CC2)ccc1Cl [Compound 12-107] |
| < 50 nM | COc1ccc(C)cc1NC(=O)[C@H](CCN)NC(=O)[C@@H]1Cc2ccccc2CN1C(=O)CCC(=O)c1ccccc1 [Compound 1-38] |
| > 500 nM | NCC[C@H](NC(=O)[C@@H]1Cc2ccccc2CN1C(=O)CCC(=O)c1ccccc1)C(=O)Nc1ccc2c(c1)CCC2=O [Compound 2-69] |
| 50 to 250 nM | Cc1cc(NC(=O)[C@H](CCN)NC(=O)[C@@H]2Cc3ccccc3CN2C(=O)CCC(=O)N2CCN(C3CC3)CC2)ccc1Cl [Compound 12-33] |
| 250 to 500 nM | COc1nccc(C[C@H](NC(=O)[C@@H]2Cc3ccccc3CN2C(=O)CCC(=O)c2ccccc2)C(=O)Nc2ccc(Cl)c(C)c2)n1 [Compound 3-11] |
| 250 to 500 nM | Cc1ccc(NC(=O)[C@H](CCN)NC(=O)[C@@H]2Cc3ccccc3CN2C(=O)CCC(=O)c2ccccc2)c(Cl)c1 [Compound 2-36] |
| < 50 nM | Cc1cc(NC(=O)[C@H](CCN)NC(=O)[C@@H]2Cc3ccccc3CN2C(=O)CCC(=O)N2CCCOCC2)ccc1Cl [Compound 12-20] |
| > 500 nM | Cc1cc(NC(=O)[C@H](CCN)NC(=O)[C@@H]2Cc3ccccc3CN2C(=O)CCC(=O)N2CC3CCC2CN3C)ccc1Cl (stereo partly drawn) [Compound 12-146] |
| > 500 nM | NCCCC[C@H](NC(=O)[C@@H]1Cc2ccccc2CN1C(=O)CCC(=O)c1ccccc1)C(=O)Nc1ccc(-c2ccccc2)cc1 [Compound 1-5] |
| 50 to 250 nM | Cc1cc(NC(=O)[C@H](CCCC[N+](C)(C)C)NC(=O)[C@@H]2Cc3ccccc3CN2C(=O)CCC(=O)c2ccccc2)ccc1Cl [Compound 6-3] |
| 50 to 250 nM | Cc1cc(NC(=O)[C@H](CCN)NC(=O)[C@@H]2Cc3ccccc3CN2C(=O)CCC(=O)N2CCCN(C)CC2)ccc1Cl [Compound 12-34] |
| < 50 nM | Cc1cc(NC(=O)[C@H](CCN)NC(=O)[C@@H]2Cc3ccccc3CN2C(=O)CCC(=O)N2CC3(CCCCC3)C2)ccc1Cl [Compound 12-7] |
| > 500 nM | NCC[C@H](NC(=O)[C@@H]1Cc2ccccc2CN1C(=O)CCC(=O)c1ccccc1)C(=O)Nc1ccc(C(F)(F)F)c(Cl)c1 [Compound 2-13] |
| < 50 nM | Cc1cccc(NC(=O)[C@H](CCN2CCC(O)CC2)NC(=O)[C@@H]2Cc3ccccc3CN2C(=O)CCC(=O)c2ccccc2)c1F [Compound 28-2] |
| 50 to 250 nM | Cc1cc(NC(=O)[C@H](CCN)NC(=O)[C@@H]2Cc3ccccc3CN2C(=O)CCC(=O)N2CCN(C)C(=O)C2)ccc1Cl [Compound 12-37] |
| 250 to 500 nM | NCC[C@H](NC(=O)[C@@H]1Cc2ccccc2CN1C(=O)CCC(=O)c1ccccc1)C(=O)Nc1cccc(Cl)c1C(F)(F)F [Compound 14-16] |
| < 50 nM | Cc1cc(NC(=O)[C@H](CCN)NC(=O)[C@@H]2Cc3ccccc3CN2C(=O)CCC(=O)N2CCN(C)[C@H](C)C2)ccc1Cl [Compound 12-35] |
| > 500 nM | CC(C)c1ccc(NC(=O)[C@H](CCCCN)NC(=O)[C@@H]2Cc3ccccc3CN2C(=O)CCC(=O)c2ccccc2)cc1 [Compound 1-7] |
| 250 to 500 nM | O=C(CCC(=O)N1Cc2ccccc2C[C@H]1C(=O)N[C@@H](CCN1CCC(F)(F)C1)C(=O)Nc1ccc2c(c1)CCC2)c1ccccc1 [Compound 23-7] |
| 50 to 250 nM | CC(C)(C)CC1CCCCN1C(=O)CCC(=O)N1Cc2ccccc2C[C@H]1C(=O)N[C@@H](CCN)C(=O)Nc1ccc(Cl)c(Cl)c1F (stereo partly drawn) [Compound 15-14] |
| < 50 nM | NCC[C@H](NC(=O)[C@@H]1Cc2ccccc2CN1C(=O)CCC(=O)N1CCCC12CCC2)C(=O)Nc1ccc2c(c1)CCC2 [Compound 10-6] |
| 50 to 250 nM | COc1cc(C)c(F)cc1NC(=O)[C@H](CCN)NC(=O)[C@@H]1Cc2ccccc2CN1C(=O)CCC(=O)c1ccccc1 [Compound 2-71] |
| > 500 nM | Cc1cc(NC(=O)[C@H](CCN)NC(=O)[C@@H]2Cc3ccccc3CN2C(=O)CCC(=O)N2CCN(c3ccccc3)CC2)ccc1Cl [Compound 12-101] |
